Measurements from patent US9686993B2 (priority 2005, dated 2017).
Read-outs that look alike come from different tables or passages of the source.

Tests used:
[1] = tested on: wheat scab (Fusarium graminearum, Fusarium culmorum, or Fusarium avenaceum); type: in vivo; details: for Medicinal Benefit Control Value: relative to no treatment; for Medicinal Benefit (number of infected berries in 1000 berries): sprayed once at GSs 65 to 71, no treatment 203
[2] = tested on: Fusarium graminearum, Fusarium culmorum, or Fusarium avenaceum (mycotoxin production, DON); details: in vivo

COC(=O)NC(=S)Nc1ccccc1NC(=S)NC(=O)OC [Cercobin M, thiophanate-methyl]
Medicinal Benefit Control Value ([1]; 250 g ai/ha): 6.4% | Medicinal Benefit (number of infected berries in 1000 berries) ([1]; 250 g ai/ha): 190 | medicinal benefit (number of infected berries in 1000 berries), result in words ([1]; 250 to 500 g ai/ha (combination 500 + 120 g ai/ha), versus no treatment): almost no difference | Medicinal Benefit Control Value ([1]; 375 g ai/ha): 7.4% | Medicinal Benefit (number of infected berries in 1000 berries) ([1]; 375 g ai/ha): 218 | Medicinal Benefit Control Value ([1]; 500 g ai/ha): 11.3% | Medicinal Benefit (number of infected berries in 1000 berries) ([1]; 500 g ai/ha): 180 | amount of mycotoxin production (DON concentration), result in words [2]: inhibited in a dose-dependent manner
